The target of experiment [1] is T1, AR in stickleback kidney cytosolic extracts (Gasterosteus aculeatus, UniProt Q801Z1).
T1 sequence (Q801Z1 1-682): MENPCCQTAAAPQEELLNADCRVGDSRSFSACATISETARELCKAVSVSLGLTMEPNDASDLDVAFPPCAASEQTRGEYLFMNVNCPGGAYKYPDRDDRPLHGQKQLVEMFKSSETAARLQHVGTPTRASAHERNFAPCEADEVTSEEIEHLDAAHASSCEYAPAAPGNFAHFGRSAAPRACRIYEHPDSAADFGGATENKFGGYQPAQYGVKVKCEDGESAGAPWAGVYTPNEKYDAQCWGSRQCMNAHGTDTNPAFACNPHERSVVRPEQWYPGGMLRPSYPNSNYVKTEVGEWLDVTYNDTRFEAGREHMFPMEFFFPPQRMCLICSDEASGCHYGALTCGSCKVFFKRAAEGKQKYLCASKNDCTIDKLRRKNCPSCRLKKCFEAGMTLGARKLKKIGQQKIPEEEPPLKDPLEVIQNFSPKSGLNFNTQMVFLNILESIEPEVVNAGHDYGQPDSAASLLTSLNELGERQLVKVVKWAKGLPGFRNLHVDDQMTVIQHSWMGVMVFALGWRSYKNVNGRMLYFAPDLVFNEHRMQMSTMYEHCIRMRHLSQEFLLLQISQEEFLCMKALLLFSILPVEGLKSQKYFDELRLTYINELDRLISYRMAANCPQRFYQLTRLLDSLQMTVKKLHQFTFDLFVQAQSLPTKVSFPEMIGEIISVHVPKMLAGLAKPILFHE
Briefly: Ligand competition assay with 1 nM [3H]-DHT, kidney cytosolic extracts. The experiment is classed as binding, three-spined stickleback (Gasterosteus aculeatus). The conditions noted are these: overnight 4°C, read-out: EC50 (competition for [3H]-DHT binding). The method, then: (§1) The steroid specificity of receptor binding was examined using a competitive binding assay. […] Following incubation, the reaction was terminated by addition of DCC and centrifugation and the specific binding in each tube was determined as described above.

In experiment [2] the target is T2, stickleback ARβ2 (reticulocyte lysate) (Gasterosteus aculeatus, UniProt Q801Z2).
T2 sequence (Q801Z2 1-735): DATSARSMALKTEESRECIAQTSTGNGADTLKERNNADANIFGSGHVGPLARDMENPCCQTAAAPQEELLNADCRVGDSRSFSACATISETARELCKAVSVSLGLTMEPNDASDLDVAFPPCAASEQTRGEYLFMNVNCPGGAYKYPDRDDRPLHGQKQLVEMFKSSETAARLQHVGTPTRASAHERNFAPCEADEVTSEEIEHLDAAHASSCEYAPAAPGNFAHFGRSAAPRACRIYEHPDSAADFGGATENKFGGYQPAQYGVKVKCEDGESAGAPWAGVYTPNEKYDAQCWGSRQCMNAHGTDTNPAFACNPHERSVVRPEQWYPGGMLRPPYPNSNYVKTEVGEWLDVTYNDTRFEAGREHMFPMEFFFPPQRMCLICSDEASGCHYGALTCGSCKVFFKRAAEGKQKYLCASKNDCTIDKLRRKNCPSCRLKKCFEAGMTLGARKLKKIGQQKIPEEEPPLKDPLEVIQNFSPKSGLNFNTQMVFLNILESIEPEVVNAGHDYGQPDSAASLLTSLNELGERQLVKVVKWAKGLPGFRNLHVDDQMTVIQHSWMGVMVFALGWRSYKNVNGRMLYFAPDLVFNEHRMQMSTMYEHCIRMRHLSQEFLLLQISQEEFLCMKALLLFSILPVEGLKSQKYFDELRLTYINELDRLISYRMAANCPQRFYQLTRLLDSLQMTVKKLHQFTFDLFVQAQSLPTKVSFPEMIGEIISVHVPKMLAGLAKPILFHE
Briefly: Ligand competition assay with 1 nM [3H]-DHT, ARβ2 containing reticulocyte extract. The format is binding, three-spined stickleback (Gasterosteus aculeatus). The conditions noted are these: read-out: EC50 (competition for [3H]-DHT binding). The method, then: The excised AR pBK CMV clones were digested with XbaI and EcoRI and the inserts were gel purified prior to ligation into the pCMV-TNT vector (Promega) between XbaI and EcoRI. […] AR was expressed by introducing the pCMV-TNT into the TNT coupled reticulocyte lysate system (Promega) according to the manufacturer's instructions. The size of the expressed products was determined by addition of S^35-methionin to the reticulocyte lysate system. The obtained protein suspension was analyzed on a denaturing 8% SDS PAGE and the sizes were determined using prestained SDS-PAGE broad range protein molecular weight standard (Bio-Rad) and a control luciferase protein of 62 kDa included in the reticulocyte lysate system (Promega). For use in binding assays AR was expressed in the absence of radioactive S^35-methionein and stored at 4°C until further used in recombinant binding assay experiments.
as §1

In a further experiment the test system is rainbow trout ARα. The note with it: COS-1 cell line; read-out: IC50 (ligand binding); cited from earlier work.

In general, EC50 refers to the concentration at which the effect is half-maximal. As usually defined, the IC50 is the concentration that inhibits the measured activity by half. For `C[C@]12CC(=O)[C@H]3[C@@H](CCC4=CC(=O)CC[C@@]43C)[C@@H]1CC[C@@H]2O` [KT, 11-ketotestosterone], the 50% effective concentration (EC50) came to 42.8 ± 3.42 nM in experiment [1] and 2.18 ± 0.71 nM in experiment [2]. Besides, the 50% inhibitory concentration (IC50) in the experiment with rainbow trout ARα is 8 nM.

Source of the values: PMC1192819, “Molecular cloning and characterization of a nuclear androgen receptor activated by 11-ketotestosterone” (Reproductive biology and endocrinology : RB&E, 2005).
